Laboratory results published in US12421257B2, “Compositions and methods for inhibiting group II intron RNA” (YALE UNIVERSITY, priority 2018, dated 2025).
Converted amounts (≈) assume the structure as drawn. “Also recorded” adds a separate entry of the source. Read-outs that look alike come from different tables or passages of the source.

How the values were obtained:
[1] = tested on: ai5γ group II intron (D135 ribozyme); assay: Fluorescent D135 ribozyme cleavage assay (IC50); assay type: biochemical, Saccharomyces cerevisiae
Method in brief: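 D135 ribozyme (20 nM) with double-labeled substrate 17/2 DL (20 nM) in 50 mM MOPS pH 7.0, 100 mM MgCl2, 0.5 M KCl; 19 inhibitor concentrations, 5 nM–1 mM, 10 min at 37 °C, EDTA quench, fluorescence read. Triplicates fit to 4-parameter logistic for IC50; mean±s.e.m.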

C. parapsilosis = assay: MIC determination against C. parapsilosis; assay type: cell-based, Candida parapsilosis; settings: Lodderomyces parapsilosis; RPMI-1640, 35° C. or 37° C., turbidity after 24 and 48 hours
Method in brief: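 Broth microdilution in RPMI-1640 with C. parapsilosis at 0.5×10^3 to 2.5×10^3 CFU/mL; test compounds 0.25-128 μg/ml final, 1% DMSO. Plates incubated at 35° C or 37° C, turbidity read visually at 24 and 48 h. MIC = lowest concentration without visible growth; triplicates.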

ai5γ group II intron = assay: Radioanalytic self-splicing assay of SE RNA (Ki); assay type: biochemical, Saccharomyces cerevisiae; settings: 8 mM MgCl2, 100 mM KCl, pH 7.5, 30° C.
Description: Internally labeled SE RNA (2 nM) was incubated with various concentrations of inhibitor compound under near-physiological conditions (in 50 mM MOPS, pH 7.5, 8 mM MgCl2, 100 mM KCl) at 30° C. Aliquots at different time points were quenched and analyzed on 5% denaturing polyacrylamide gel as previously described (Daniels et al., 1996, Journal of molecular biology, 256:31-49). Data were fit to a single-exponential equation to determine the first order rate constants (kobs). The latter were then plotted against the concentration of the inhibitor and fit to the equation for non-competitive inhibition to determine Ki values: kobs=kmax/(1+[I]/Ki), where kobs and kmax are the first order rate constants measured in the presence and in the absence of the inhibitor, respectively, [I] is the concentration of the inhibitor and Ki is the inhibition constant. Experiments were performed four times for API-014, three times for APY-090, Intronistat A, and Intronistat B and twice for the remaining compounds to ensure reproducibility. Data represent average±s.e.m.

HEK-293T cells = assay: Cytotoxicity in HEK-293T cells (Cell Titer Glo); assay type: cell-based, human; settings: Homo sapiens, cytotoxicity, 24 hours with compound, read-out: IC50 HEK-293
[2] = tested on: C. parapsilosis COX1 group IIB intron; assay: Group II intron splicing in C. parapsilosis by qRT-PCR; assay type: cell-based, Candida parapsilosis; settings: 32 μg/mL
S. cerevisiae = assay: Yeast respiration assay in S. cerevisiae (MIC in YPD / YPGE); assay type: cell-based, Saccharomyces cerevisiae; settings: Saccharomyces cerevisiae, 30° C.
Description: Yeast respiration assays were conducted either in liquid YPD media (BD Bacto Yeast Extract, BD Bacto Peptone, 2% glucose) or in YPGE media (BD Bacto Yeast Extract, BD Bacto Peptone, 3% glycerol, 3% ethanol), essentially as described for the antifungal MIC assays (see below). To initiate these experiments, 100 μl of a fresh stock solution was prepared for each compound (3.2 mg/ml for Amphotericin B and 12.8 mg/ml for each test compounds) in DMSO. This concentrated stock solution was placed in the first well of 12-well row on a 96-well plate. The subsequent nine wells in this row contained 50 μl of DMSO for serial dilution. From the first well, 50 μl of the compound stock was withdrawn, transferred to the second well and mixed. This process was repeated from the second and subsequent wells, resulting in a 1:2 serial dilution of the stock into DMSO. Wells 11 and 12 contained DMSO only, to be used as no compound control and sterility control, with no inoculum added, respectively. After preparing this plate, 2.5 μl from each of the 12 wells was transferred to the wells of a separate 96-well plate, each of which contained 122.5 μl of YPD or YPGE medium, resulting in a set of serial dilutions of compound into growth media in a volume of 125 μl. Then 50 μl from each of these dilutions were transferred onto a third 96-well plate (the assay plate) and mixed with an equal volume (50 μl) of freshly prepared yeast inoculum in YPD or YPGE medium set to provide 0.5×10^3 to 2.5×10^3 colony forming units per 1 mL (wells 1-11), or YPD/YPGE alone (sterility control, well 12). The final compound concentration range of the assay was 0.25-128 μg/ml for test compounds and 0.0625-32 μg/ml for Amphotericin B. The final concentration of DMSO was 1%. Plates were incubated at 30° C. and visually analyzed for turbidity after 24 and 48 hours of incubation. The lowest compound concentration at which no growth was apparent is reported as the MIC (Table 1). All experiments were performed in triplicate.

Row | SMILES | IC50 ([1]; D135 ribozyme cleavage of substrate 17/2 DL, 100 mM MgCl2, 500 mM KCl, 37° C., 10 minutes) [µM] | In vitro inhibitory activity, SAR statement (in words) ([1]; relative to parent scaffold) | MIC (C. parapsilosis) [µg/mL] | Ki (ai5γ group II intron) [µM] | IC50 (HEK-293T cells) [µg/mL] | Splicing of C. parapsilosis COX1 in vivo (in words) [2] | MIC (S. cerevisiae; YPD medium, read-out: MIC in YPD (glucose)) [µg/mL] | MIC (S. cerevisiae; YPGE medium, read-out: MIC in YPGE (glycerol)) [µg/mL]
1 | COc1ccc(/C=C2\Oc3cc(O)cc(O)c3C2=O)cc1OC [APY-001, (Z)-2-(3,4-Dimethoxybenzylidene)-4,6-dihydroxybenzofuran-3(2H)-one] | > 100 | nearly complete loss of activity | > 128 | > 1000 | > 128 | this effect was not observed; also recorded: inactive |  | 
2 | O=C1/C(=C/c2cc(O)c(O)c(O)c2)Oc2cccc(O)c21 [APY-019, (Z)-4-Hydroxy-2-(3,4,5-trihydroxybenzylidene)benzofuran-3(2H)-one] |  |  | 16 (≈ 55.9 µM) |  | > 32 |  | > 128 | 64 (≈ 224 µM)
